Legend:
hERG potassium channel [1] = target: T1, hERG potassium channel (Homo sapiens, UniProt Q12809); assay: in vitro
hERG potassium channel [2] = target: T1, hERG potassium channel; assay: cell-based
hERG potassium channel [3] = target: T1, hERG potassium channel
CYP1A2 = target: T2, CYP1A2 (Homo sapiens, UniProt P05177); assay: CYP enzyme inhibition test, P450-Glo CYP1A2 Screening System; assay type: in vitro ADME; details: for inhibitory effect on CYP1A2: conclusion in words
T2 construct: purchased
T2 sequence (P05177 1-516): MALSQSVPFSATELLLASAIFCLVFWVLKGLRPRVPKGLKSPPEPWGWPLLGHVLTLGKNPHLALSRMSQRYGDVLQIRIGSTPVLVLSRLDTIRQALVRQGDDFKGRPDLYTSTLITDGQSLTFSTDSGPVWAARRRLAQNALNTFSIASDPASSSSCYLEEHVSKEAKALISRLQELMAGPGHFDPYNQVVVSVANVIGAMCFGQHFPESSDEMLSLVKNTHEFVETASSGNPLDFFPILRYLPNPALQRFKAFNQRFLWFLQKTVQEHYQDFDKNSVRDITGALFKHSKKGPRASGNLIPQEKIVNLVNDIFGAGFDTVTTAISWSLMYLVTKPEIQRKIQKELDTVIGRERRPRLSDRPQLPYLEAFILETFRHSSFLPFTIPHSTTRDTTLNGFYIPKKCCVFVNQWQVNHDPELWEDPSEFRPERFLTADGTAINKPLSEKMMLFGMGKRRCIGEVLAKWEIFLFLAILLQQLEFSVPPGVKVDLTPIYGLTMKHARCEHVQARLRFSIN
Experimental: Experimental Example 6: CYP Enzyme Inhibition Test CYP450 is the most important enzyme system in drug metabolism. The enzymes involved in metabolism interact with drugs, and the most important ones are CYP1A2, CYP2D6 and CYP3A4. P450-Glo™ CYP1A2 Screening System, Vivid® CYP2D6 Cyan Screening Kit and Vivid® CYP3A4 Red Screening Kit were used in this test, and the inhibitory effects of the compounds on CYP1A2, CYP2D6 and CYP3A4 were determined according to the instructions of the kit.

T1 sequence (Q12809 whole entry): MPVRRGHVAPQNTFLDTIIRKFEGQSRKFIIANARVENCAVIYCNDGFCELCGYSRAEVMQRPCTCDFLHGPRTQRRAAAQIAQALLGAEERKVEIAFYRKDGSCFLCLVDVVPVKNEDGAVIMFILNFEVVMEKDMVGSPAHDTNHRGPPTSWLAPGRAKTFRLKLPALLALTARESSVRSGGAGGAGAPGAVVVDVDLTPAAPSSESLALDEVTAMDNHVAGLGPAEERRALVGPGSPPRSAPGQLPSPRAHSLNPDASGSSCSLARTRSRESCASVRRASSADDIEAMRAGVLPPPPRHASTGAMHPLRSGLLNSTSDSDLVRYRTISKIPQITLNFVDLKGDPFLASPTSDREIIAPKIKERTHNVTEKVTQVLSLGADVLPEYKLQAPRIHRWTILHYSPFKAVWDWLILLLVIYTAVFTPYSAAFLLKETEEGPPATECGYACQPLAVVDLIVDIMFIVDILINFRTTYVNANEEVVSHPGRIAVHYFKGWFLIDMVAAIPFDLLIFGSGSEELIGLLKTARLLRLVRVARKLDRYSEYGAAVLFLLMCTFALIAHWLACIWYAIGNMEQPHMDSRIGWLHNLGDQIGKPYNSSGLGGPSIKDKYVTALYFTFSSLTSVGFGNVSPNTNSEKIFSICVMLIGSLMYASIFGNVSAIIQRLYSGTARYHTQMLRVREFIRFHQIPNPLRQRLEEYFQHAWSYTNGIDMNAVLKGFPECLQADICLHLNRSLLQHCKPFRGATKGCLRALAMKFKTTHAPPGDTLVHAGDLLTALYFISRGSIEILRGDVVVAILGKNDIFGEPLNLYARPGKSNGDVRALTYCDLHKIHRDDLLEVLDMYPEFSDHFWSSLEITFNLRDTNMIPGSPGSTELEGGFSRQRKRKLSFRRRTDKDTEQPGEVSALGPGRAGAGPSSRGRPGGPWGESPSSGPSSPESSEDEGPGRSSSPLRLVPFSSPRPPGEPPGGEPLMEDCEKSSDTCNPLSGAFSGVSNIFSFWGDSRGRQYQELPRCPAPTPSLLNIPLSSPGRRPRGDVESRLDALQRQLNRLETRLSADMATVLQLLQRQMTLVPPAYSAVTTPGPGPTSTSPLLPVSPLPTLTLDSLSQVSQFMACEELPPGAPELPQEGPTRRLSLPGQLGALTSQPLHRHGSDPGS

IC50 (CYP1A2) [µM] | inhibitory effect on CYP1A2 (CYP1A2) | SMILES | inhibition at 10 μM (hERG potassium channel [1]) [%] | IC50 (hERG potassium channel [2]) [µM] | inhibitory effect on hERG (hERG potassium channel [3])
 |  | Nc1cc(N[C@@H]2CC[C@@H](O)C2)c2sc(-c3ccn[nH]3)cc2n1 [Compound 30, (1R,3R)-3-((5-amino-2-(1H-pyrazol-5-yl)thieno[3,2-b]pyridin-7-yl)amino)cyclopentanol] | 1.91 ± 1.4 | > 10 | no apparent inhibitory effect
> 10 | no apparent inhibitory effects | C[C@@H]1CN(CCNc2cc(N)nc3cc(-c4ccn[nH]4)sc23)C[C@@H](C)O1 [Compound 124, N^7-(2-((2R,6R)-2,6-dimethylmorpholino)ethyl)-2-(1H-pyrazol-5-yl)thieno[3,2-b]pyridine-5,7-diamine] |  |  | 
> 10 | no apparent inhibitory effects | C[C@@H](CCO)Nc1cc(N)nc2cc(-c3ccn[nH]3)sc12 [Compound 125, (S)-3-((5-amino-2-(1H-pyrazol-5-yl)thieno[3,2-b]pyridin-7-yl)amino)butanol] |  |  | 
